Measurements reported in article PMC8016998, “Identification of potential therapeutic antimicrobial peptides against Acinetobacter baumannii in a mouse model of pneumonia” (Scientific Reports, 2021).
Converted amounts (≈) assume the structure as drawn. Read-outs that look alike come from different tables or passages of the source. No end group written: not given here.

What was measured:
[1] = test system: Acinetobacter baumannii 17,978; type: cell-based;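 note: CLSI broth microdilution in 96-well polypropylene plates, MBC taken as lowest concentration giving no growth when clear wells were subcultured on LB agar for 24 h at 37 °C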
[2] = test system: Acinetobacter baumannii 19,606; type: cell-based
Experimental: (§1) MBC were determined by extending the MIC procedure in sterilized 96-well polypropylene microtiter plates according to the broth microdilution guidelines of the Clinical and Laboratory Standards Institute with some modification[47]. […] In addition, 10 µL was drawn from each well with no visible turbidity onto LB agar plates and incubated for 24 h at 37 °C. The lowest concentration showing no visible growth on agar subculture was used as the MBC value. All experiments were performed in triplicate.

MDRAB clinical strains = type: cell-based, Acinetobacter baumannii
Experimental: as §1

[3] = test system: MDRAB clinical strain J49; type: cell-based, Acinetobacter baumannii
Experimental: as §1

MDRAB clinical strain K2 = type: cell-based, Acinetobacter baumannii
Experimental: as §1

[4] = test system: MDRAB clinical strain Y92; type: cell-based, Acinetobacter baumannii
Experimental: as §1

[5] = test system: MDRAB clinical strain W11; type: cell-based, Acinetobacter baumannii
[6] = test system: MDRAB clinical strain U80; type: cell-based, Acinetobacter baumannii
Experimental: as §1

[7] = test system: MDRAB clinical strain U95; type: cell-based, Acinetobacter baumannii
[8] = test system: MDRAB clinical strain O59; type: cell-based, Acinetobacter baumannii
Experimental: as §1

[9] = test system: MDRAB clinical strain D29; type: cell-based, Acinetobacter baumannii
Experimental: as §1

[10] = test system: MDRAB clinical strain L87; type: cell-based, Acinetobacter baumannii
[11] = test system: MDRAB clinical strain AO80; type: cell-based, Acinetobacter baumannii
Experimental: as §1

[12] = test system: MDRAB clinical strain AS40; type: cell-based, Acinetobacter baumannii
[13] = test system: MDRAB clinical strain AK29; type: cell-based, Acinetobacter baumannii
[14] = test system: MDRAB clinical strain AK61; type: cell-based, Acinetobacter baumannii
Experimental: as §1

[15] = test system: MDRAB clinical strain AE5; type: cell-based, Acinetobacter baumannii
[16] = test system: MDRAB clinical strain AE6; type: cell-based, Acinetobacter baumannii
Experimental: as §1

[17] = test system: MDRAB clinical strain AF11; type: cell-based, Acinetobacter baumannii
Experimental: as §1

[18] = test system: MDRAB clinical strain AF12; type: cell-based, Acinetobacter baumannii
[19] = test system: MDRAB clinical strain AF93; type: cell-based, Acinetobacter baumannii
Experimental: as §1

[20] = test system: MDRAB clinical strain AG51; type: cell-based, Acinetobacter baumannii
[21] = test system: MDRAB clinical strain AN10; type: cell-based, Acinetobacter baumannii
Experimental: as §1

[22] = test system: MDRAB clinical strain AL87; type: cell-based, Acinetobacter baumannii
[23] = test system: MDRAB clinical strain AZ93; type: cell-based, Acinetobacter baumannii
[24] = 10 µL from wells without turbidity onto LB agar, 24 h at 37 °C, triplicate

For `CC[C@H](C)[C@H](NC(=O)CNC(=O)[C@@H](NC(=O)[C@H](CCCCN)NC(=O)[C@H](CCCCN)NC(=O)[C@H](Cc1ccccc1)NC(=O)[C@H](CC(C)C)NC(=O)[C@H](CCCCN)NC(=O)[C@H](Cc1c[nH]c2ccccc12)NC(=O)[C@@H](N)CCCCN)[C@@H](C)CC)C(=O)NCC(=O)N[C@@H](C)C(=O)N[C@H](C(=O)N[C@@H](CC(C)C)C(=O)N[C@@H](CCCCN)C(=O)N[C@H](C(=O)N[C@@H](CC(C)C)C(=O)N[C@H](C(=O)N[C@H](C(=O)NCC(N)=O)[C@@H](C)O)[C@@H](C)O)C(C)C)C(C)C` [CAME], the MBC [1, 24] was 32 µg/mL (≈ 14.5 µM), the MIC ([1]; broth microdilution (CLSI, modified), LB medium, 5 × 10^5 CFU/mL, 24 h at 37 °C, lowest concentration with no visible growth, triplicate) was 32 µg/mL (≈ 14.5 µM) and the MBC [2, 24] was 32 µg/mL (≈ 14.5 µM). The MIC ([2]; broth microdilution (CLSI, modified), LB medium, 5 × 10^5 CFU/mL, 24 h at 37 °C, triplicate) was 32 µg/mL (≈ 14.5 µM), the MIC (MDRAB clinical strains; range over MDRAB clinical strains (details in Supplementary Table 2), broth microdilution, LB, 24 h 37 °C) was 8 to 32 µg/mL and the MBC (MDRAB clinical strains; range over MDRAB clinical strains (details in Supplementary Table 2), subculture on LB agar, 24 h 37 °C) was 8 to 64 µg/mL. It also gave an MIC ([3]; strain J49, broth microdilution, LB, 24 h 37 °C) of 16 µg/mL (≈ 7.27 µM), an MBC ([3]; strain J49, subculture on LB agar, 24 h 37 °C) of 32 µg/mL (≈ 14.5 µM) and an MIC (MDRAB clinical strain K2; strain K2, broth microdilution, LB, 24 h 37 °C) of 8 µg/mL (≈ 3.64 µM). It also gave an MBC (MDRAB clinical strain K2; strain K2, subculture on LB agar, 24 h 37 °C) of 16 µg/mL (≈ 7.27 µM), an MIC ([4]; strain Y92, broth microdilution, LB, 24 h 37 °C) of 32 µg/mL (≈ 14.5 µM) and an MBC ([4]; strain Y92, subculture on LB agar, 24 h 37 °C) of 32 µg/mL (≈ 14.5 µM). It also gave an MIC ([5]; strain W11, broth microdilution, LB, 24 h 37 °C) of 16 µg/mL (≈ 7.27 µM), an MBC ([5]; strain W11, subculture on LB agar, 24 h 37 °C) of 32 µg/mL (≈ 14.5 µM) and an MIC ([6]; strain U80, broth microdilution, LB, 24 h 37 °C) of 16 µg/mL (≈ 7.27 µM). For the same compound, the MBC ([6]; strain U80, subculture on LB agar, 24 h 37 °C) was 32 µg/mL (≈ 14.5 µM), the MIC ([7]; strain U95, broth microdilution, LB, 24 h 37 °C) was 32 µg/mL (≈ 14.5 µM) and the MBC ([7]; strain U95, subculture on LB agar, 24 h 37 °C) was 64 µg/mL (≈ 29.1 µM). The MIC ([8]; strain O59, broth microdilution, LB, 24 h 37 °C) was 32 µg/mL (≈ 14.5 µM), the MBC ([8]; strain O59, subculture on LB agar, 24 h 37 °C) was 64 µg/mL (≈ 29.1 µM) and the MIC ([9]; strain D29, broth microdilution, LB, 24 h 37 °C) was 32 µg/mL (≈ 14.5 µM). For the same compound, the MBC ([9]; strain D29, subculture on LB agar, 24 h 37 °C) was 32 µg/mL (≈ 14.5 µM), the MIC ([10]; strain L87, broth microdilution, LB, 24 h 37 °C) was 32 µg/mL (≈ 14.5 µM) and the MBC ([10]; strain L87, subculture on LB agar, 24 h 37 °C) was 64 µg/mL (≈ 29.1 µM). For the same compound, the MIC ([11]; strain AO80, broth microdilution, LB, 24 h 37 °C) was 8 µg/mL (≈ 3.64 µM), the MBC ([11]; strain AO80, subculture on LB agar, 24 h 37 °C) was 16 µg/mL (≈ 7.27 µM) and the MIC ([12]; strain AS40, broth microdilution, LB, 24 h 37 °C) was 8 µg/mL (≈ 3.64 µM). It also gave an MBC ([12]; strain AS40, subculture on LB agar, 24 h 37 °C) of 8 µg/mL (≈ 3.64 µM), an MIC ([13]; strain AK29, broth microdilution, LB, 24 h 37 °C) of 8 µg/mL (≈ 3.64 µM) and an MBC ([13]; strain AK29, subculture on LB agar, 24 h 37 °C) of 16 µg/mL (≈ 7.27 µM). For the same compound, the MIC ([14]; strain AK61, broth microdilution, LB, 24 h 37 °C) was 8 µg/mL (≈ 3.64 µM), the MBC ([14]; strain AK61, subculture on LB agar, 24 h 37 °C) was 16 µg/mL (≈ 7.27 µM) and the MIC ([15]; strain AE5, broth microdilution, LB, 24 h 37 °C) was 32 µg/mL (≈ 14.5 µM). It also gave an MBC ([15]; strain AE5, subculture on LB agar, 24 h 37 °C) of 32 µg/mL (≈ 14.5 µM), an MIC ([16]; strain AE6, broth microdilution, LB, 24 h 37 °C) of 32 µg/mL (≈ 14.5 µM) and an MBC ([16]; strain AE6, subculture on LB agar, 24 h 37 °C) of 32 µg/mL (≈ 14.5 µM). The MIC ([17]; strain AF11, broth microdilution, LB, 24 h 37 °C) was 16 µg/mL (≈ 7.27 µM), the MBC ([17]; strain AF11, subculture on LB agar, 24 h 37 °C) was 32 µg/mL (≈ 14.5 µM) and the MIC ([18]; strain AF12, broth microdilution, LB, 24 h 37 °C) was 16 µg/mL (≈ 7.27 µM). It also gave an MBC ([18]; strain AF12, subculture on LB agar, 24 h 37 °C) of 16 µg/mL (≈ 7.27 µM), an MIC ([19]; strain AF93, broth microdilution, LB, 24 h 37 °C) of 32 µg/mL (≈ 14.5 µM) and an MBC ([19]; strain AF93, subculture on LB agar, 24 h 37 °C) of 32 µg/mL (≈ 14.5 µM). It also gave an MIC ([20]; strain AG51, broth microdilution, LB, 24 h 37 °C) of 16 µg/mL (≈ 7.27 µM), an MBC ([20]; strain AG51, subculture on LB agar, 24 h 37 °C) of 32 µg/mL (≈ 14.5 µM) and an MIC ([21]; strain AN10, broth microdilution, LB, 24 h 37 °C) of 16 µg/mL (≈ 7.27 µM). For the same compound, the MBC ([21]; strain AN10, subculture on LB agar, 24 h 37 °C) was 32 µg/mL (≈ 14.5 µM), the MIC ([22]; strain AL87, broth microdilution, LB, 24 h 37 °C) was 32 µg/mL (≈ 14.5 µM) and the MBC ([22]; strain AL87, subculture on LB agar, 24 h 37 °C) was 32 µg/mL (≈ 14.5 µM). It also gave an MIC ([23]; strain AZ93, broth microdilution, LB, 24 h 37 °C) of 8 µg/mL (≈ 3.64 µM) and an MBC ([23]; strain AZ93, subculture on LB agar, 24 h 37 °C) of 8 µg/mL (≈ 3.64 µM).

For GAKYAKIIYNYLKKIANALW [GW-A2], the MBC ([1]; 17,978, 24 h) was 32 µg/mL, the MIC ([1]; 17,978, 24 h) was 32 µg/mL and the MBC ([2]; 19,606, 24 h) was 8 µg/mL. For the same compound, the MIC ([2]; 19,606, 24 h) was 8 µg/mL, the MBC (MDRAB clinical strains; 24 h) was 8 to 64 µg/mL and the MIC (MDRAB clinical strains; 24 h) was 8 to 32 µg/mL. It also gave an MBC ([3]; 24 h) of 16 µg/mL, an MIC ([3]; 24 h) of 16 µg/mL and an MBC (MDRAB clinical strain K2; 24 h) of 64 µg/mL. For the same compound, the MIC (MDRAB clinical strain K2; 24 h) was 32 µg/mL, the MBC ([4]; 24 h) was 16 µg/mL and the MIC ([4]; 24 h) was 16 µg/mL. The MBC ([5]; 24 h) was 16 µg/mL, the MIC ([5]; 24 h) was 16 µg/mL and the MBC ([6]; 24 h) was 16 µg/mL. The MIC ([6]; 24 h) was 16 µg/mL, the MBC ([7]; 24 h) was 64 µg/mL and the MIC ([7]; 24 h) was 32 µg/mL. For the same compound, the MBC ([8]; 24 h) was 32 µg/mL, the MIC ([8]; 24 h) was 32 µg/mL and the MBC ([9]; 24 h) was 16 µg/mL. It also gave an MIC ([9]; 24 h) of 16 µg/mL, an MBC ([10]; 24 h) of 16 µg/mL and an MIC ([10]; 24 h) of 16 µg/mL. It also gave an MBC ([11]; 24 h) of 16 µg/mL, an MIC ([11]; 24 h) of 8 µg/mL and an MBC ([12]; 24 h) of 16 µg/mL. For the same compound, the MIC ([12]; 24 h) was 8 µg/mL, the MBC ([13]; 24 h) was 8 µg/mL and the MIC ([13]; 24 h) was 8 µg/mL. For the same compound, the MBC ([14]; 24 h) was 8 µg/mL, the MIC ([14]; 24 h) was 8 µg/mL and the MBC ([15]; 24 h) was 16 µg/mL. It also gave an MIC ([15]; 24 h) of 16 µg/mL, an MBC ([16]; 24 h) of 32 µg/mL and an MIC ([16]; 24 h) of 16 µg/mL. It also gave an MBC ([17]; 24 h) of 32 µg/mL, an MIC ([17]; 24 h) of 16 µg/mL and an MBC ([18]; 24 h) of 8 µg/mL. The MIC ([18]; 24 h) was 8 µg/mL, the MBC ([19]; 24 h) was 16 µg/mL and the MIC ([19]; 24 h) was 16 µg/mL. The MBC ([20]; 24 h) was 8 µg/mL, the MIC ([20]; 24 h) was 8 µg/mL and the MBC ([21]; 24 h) was 8 µg/mL. It also gave an MIC ([21]; 24 h) of 8 µg/mL, an MBC ([22]; 24 h) of 8 µg/mL and an MIC ([22]; 24 h) of 8 µg/mL. The MBC ([23]; 24 h) was 16 µg/mL and the MIC ([23]; 24 h) was 8 µg/mL.
